One may read the IC50 as the concentration that inhibits the measured activity by half.

The subject of experiment [1] is HCC827 cells. The experiment in a line: Inhibition of cell proliferation, HCC827 (CCK-8, 72 h). The experiment is classed as cell-based. The conditions noted are these: Homo sapiens, 72 h incubation. The method, boiled down:
(§1)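 BT474 and HCC827 seeded at 10,000 and 3000 cells/well respectively, cultured overnight, then exposed to 10-point 3-fold compound dilutions (top stock 10 mM; 0.25% DMSO final) for 72 h. Viability by CCK-8, OD450; survival normalised to untreated and cell-free blanks, IC50 from curve fit.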

Experiment [2] relates to BT474 cells. The experiment is described as follows: Inhibition of cell proliferation, BT474 (CCK-8, 72 h). The settings on record: Homo sapiens, BT-474, 72 h incubation. It counts as cell-based. The method, boiled down:
as §1

Experiment [3] addresses HER2 kinase (Homo sapiens (Human), UniProt P04626). The experiment in a line: Inhibition of HER2 kinase activity (ULight-labeled PolyGT substrate). The experiment is classed as biochemical. The settings on record: HER2 kinase 10 nM, ATP 10 μM, 2 hours. In a few lines:
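Eleven-point 3-fold dilutions (0.042 nM–2.5 μM final, 1% DMSO) tested in duplicate against 10 nM HER2 with 100 nM ULight-labelled PolyGT and 10 μM ATP. Reaction ran 2 h at RT after 5 min pre-incubation; 665/615 nm TR-FRET ratio used to derive inhibition and IC50.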

The target in experiment [4] is EGFR kinase (Homo sapiens (Human), UniProt P00533). The experiment in a line: Inhibition of EGFR kinase activity (ULight-labeled JAK-1 (Tyr1023) peptide substrate). It counts as biochemical. The settings on record: EGFR kinase 0.35 nM, ATP 150 μM, 2 hours. In a few lines: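 TR-FRET kinase assay: 0.35 nM EGFR, 150 μM ATP, 100 nM substrate, 2 h at room temperature in the dark after 5 min enzyme-compound preincubation, 1% DMSO. Compounds tested as 11-point 3-fold series, 2.5 μM to 0.042 nM final, duplicate; IC50 from 665/615 nm ratio-based inhibition.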
EGFR kinase, sequence (P00533 25-1210): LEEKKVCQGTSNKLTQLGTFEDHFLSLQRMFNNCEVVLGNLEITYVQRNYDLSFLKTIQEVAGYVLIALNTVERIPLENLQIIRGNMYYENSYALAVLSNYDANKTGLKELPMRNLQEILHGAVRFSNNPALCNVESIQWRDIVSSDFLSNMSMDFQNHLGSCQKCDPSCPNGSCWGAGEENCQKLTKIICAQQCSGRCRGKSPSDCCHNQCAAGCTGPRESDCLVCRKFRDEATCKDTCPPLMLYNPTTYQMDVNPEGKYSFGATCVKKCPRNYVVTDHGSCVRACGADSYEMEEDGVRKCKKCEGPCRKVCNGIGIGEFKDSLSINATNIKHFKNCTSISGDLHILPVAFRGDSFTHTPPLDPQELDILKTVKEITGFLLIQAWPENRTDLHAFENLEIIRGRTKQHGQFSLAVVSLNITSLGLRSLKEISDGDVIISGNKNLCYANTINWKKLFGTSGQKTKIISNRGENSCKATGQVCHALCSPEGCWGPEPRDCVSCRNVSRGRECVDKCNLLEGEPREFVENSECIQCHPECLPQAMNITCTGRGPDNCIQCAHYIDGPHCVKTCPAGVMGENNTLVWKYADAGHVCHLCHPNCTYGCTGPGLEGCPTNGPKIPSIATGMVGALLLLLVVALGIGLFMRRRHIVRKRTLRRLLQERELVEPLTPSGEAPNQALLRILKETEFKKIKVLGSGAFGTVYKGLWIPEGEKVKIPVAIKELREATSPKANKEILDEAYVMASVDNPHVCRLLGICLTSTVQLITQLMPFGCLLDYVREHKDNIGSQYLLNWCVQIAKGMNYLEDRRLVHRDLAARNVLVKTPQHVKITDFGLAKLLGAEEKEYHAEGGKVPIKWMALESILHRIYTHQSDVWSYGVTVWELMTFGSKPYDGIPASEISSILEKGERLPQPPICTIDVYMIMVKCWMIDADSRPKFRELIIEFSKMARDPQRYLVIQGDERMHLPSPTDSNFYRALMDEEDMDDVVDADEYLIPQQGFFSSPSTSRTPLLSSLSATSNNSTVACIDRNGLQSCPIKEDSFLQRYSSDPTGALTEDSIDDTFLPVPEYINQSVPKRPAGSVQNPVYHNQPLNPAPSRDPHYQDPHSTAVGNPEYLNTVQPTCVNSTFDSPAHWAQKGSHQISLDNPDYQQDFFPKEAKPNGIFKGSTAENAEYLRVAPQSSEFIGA

HER2 kinase, sequence (P04626 23-1255): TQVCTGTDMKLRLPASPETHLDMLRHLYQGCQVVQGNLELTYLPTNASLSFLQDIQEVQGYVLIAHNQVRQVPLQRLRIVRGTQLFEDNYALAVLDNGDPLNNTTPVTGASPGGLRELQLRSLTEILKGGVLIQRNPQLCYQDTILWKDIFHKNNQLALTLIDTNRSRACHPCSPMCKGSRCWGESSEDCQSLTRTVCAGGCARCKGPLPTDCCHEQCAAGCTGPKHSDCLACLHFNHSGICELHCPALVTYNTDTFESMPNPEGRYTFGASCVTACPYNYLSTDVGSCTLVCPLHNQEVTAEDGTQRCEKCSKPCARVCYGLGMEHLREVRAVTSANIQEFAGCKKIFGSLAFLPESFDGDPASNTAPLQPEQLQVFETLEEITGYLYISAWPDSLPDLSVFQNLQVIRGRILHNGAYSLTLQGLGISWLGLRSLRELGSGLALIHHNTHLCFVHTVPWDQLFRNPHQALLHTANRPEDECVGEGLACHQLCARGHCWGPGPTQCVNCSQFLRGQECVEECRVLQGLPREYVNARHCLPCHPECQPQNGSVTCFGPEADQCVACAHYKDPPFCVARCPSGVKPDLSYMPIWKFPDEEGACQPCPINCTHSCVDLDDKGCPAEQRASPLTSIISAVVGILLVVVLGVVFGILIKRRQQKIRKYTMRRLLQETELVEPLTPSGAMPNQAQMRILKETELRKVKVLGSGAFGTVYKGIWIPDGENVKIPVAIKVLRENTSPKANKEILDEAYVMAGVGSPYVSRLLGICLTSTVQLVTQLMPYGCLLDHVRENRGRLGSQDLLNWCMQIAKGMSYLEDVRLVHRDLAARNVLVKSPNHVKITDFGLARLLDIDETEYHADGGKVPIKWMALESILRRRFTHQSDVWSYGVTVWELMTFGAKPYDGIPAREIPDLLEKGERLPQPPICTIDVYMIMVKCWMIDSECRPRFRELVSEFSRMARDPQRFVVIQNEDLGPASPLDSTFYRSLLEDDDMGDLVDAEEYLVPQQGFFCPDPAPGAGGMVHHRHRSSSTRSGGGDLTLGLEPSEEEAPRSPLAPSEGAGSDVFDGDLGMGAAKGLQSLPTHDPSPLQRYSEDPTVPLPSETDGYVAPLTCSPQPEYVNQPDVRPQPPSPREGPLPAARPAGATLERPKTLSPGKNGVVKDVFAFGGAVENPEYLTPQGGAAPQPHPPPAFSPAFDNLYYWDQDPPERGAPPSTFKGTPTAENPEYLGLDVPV

For the compound `CN(C)C/C=C/C(=O)N1CCOc2c1ccc1ncnc(Nc3ccc(OCc4cccc(F)c4)c(F)c3)c21` [Example 69, (E)-4-(dimethylamino)-1-(10-((4-((3-fluorobenzyl)oxy)-3-fluorophenyl)amino)-2,3-dihydro-4H-[1,4]oxazino[2,3-f]quinazolin-4-yl)but-2-en-1-one], the IC50 in experiment [1] was 500 to 5000 nM; in experiment [2], ≤ 50 nM; in experiment [3], ≤ 50 nM; in experiment [4], ≤ 50 nM.
`Cc1ccc(F)c(Oc2ccc(Nc3ncnc4ccc5c(c34)OCCN5C(=O)/C=C/CN(C)C)cc2)c1` [Example 71, (E)-4-(dimethylamino)-1-(10-((4-(2-fluoro-5-methylphenoxy)phenyl)amino)-2,3-dihydro-4H-[1,4]oxazino[2,3-f]quinazolin-4-yl)but-2-en-1-one]: the IC50 was 500 to 5000 nM in experiment [1], ≤ 50 nM in experiment [2], ≤ 50 nM in experiment [3] and ≤ 50 nM in experiment [4].
`CN(C)C/C=C/C(=O)N1CCOc2c1ccc1ncnc(Nc3ccc(Oc4cc(Cl)ccc4F)cc3)c21` [Example 72, (E)-4-(dimethylamino)-1-(10-((4-(5-chloro-2-fluorophenoxy)phenyl)amino)-2,3-dihydro-4H-[1,4]oxazino[2,3-f]quinazolin-4-yl)but-2-en-1-one]: the IC50 in experiment [1] was 50 to 500 nM; in experiment [2] it was ≤ 50 nM; in experiment [3], ≤ 50 nM; in experiment [4] it was ≤ 50 nM.
In the case of `CN(C)C/C=C/C(=O)N1CCOc2c1ccc1ncnc(Nc3ccc(Oc4cc(F)ccc4F)cc3)c21` [Example 73, (E)-4-(dimethylamino)-1-(10-((4-(2,5-difluorophenoxy)phenyl)amino)-2,3-dihydro-4H-[1,4]oxazino[2,3-f]quinazolin-4-yl)but-2-en-1-one], the IC50 in experiment [1] was 500 to 5000 nM; in experiment [2], ≤ 50 nM; in experiment [3], ≤ 50 nM; in experiment [4], 50 to 500 nM.
For the compound `CC(Oc1ccc(Nc2ncnc3ccc4c(c23)OCCN4C(=O)/C=C/CN(C)C)cc1)c1cccc(F)c1` (stereo not shown) [Example 74, (E)-4-(dimethylamino)-1-(10-((4-(1-(3-fluorophenyl)ethoxy)phenyl)amino)-2,3-dihydro-4H-[1,4]oxazino[2,3-f]quinazolin-4-yl)but-2-en-1-one], the 50% inhibitory concentration (IC50) in experiment [1] was 500 to 5000 nM; in experiment [2] it was ≤ 50 nM; in experiment [3], ≤ 50 nM; in experiment [4], 50 to 500 nM.
Take `CN(C)C/C=C/C(=O)N1CCOc2c1ccc1ncnc(Nc3ccc(OCc4cccnc4)cc3)c21` [Example 76, (E)-4-(dimethylamino)-1-(10-((4-(pyridin-3-ylmethoxy)phenyl)amino)-2,3-dihydro-4H-[1,4]oxazino[2,3-f]quinazolin-4-yl)but-2-en-1-one]: the IC50 is 50 to 500 nM in experiment [1], ≤ 50 nM in experiment [2], ≤ 50 nM in experiment [3] and 500 to 5000 nM in experiment [4].
Take `CN(C)C/C=C/C(=O)N1CCOc2c1ccc1ncnc(Nc3ccc(OCc4cccc(Cl)c4)cc3)c21` [Example 83, (E)-1-(10-((4-((3-chlorobenzyl)oxy)phenyl)amino)-2,3-dihydro-4H-[1,4]oxazino[2,3-f]quinazolin-4-yl)-4-(dimethylamino)but-2-en-1-one]: the IC50 in experiment [1] is 500 to 5000 nM; in experiment [2], ≤ 50 nM; in experiment [3], ≤ 50 nM; in experiment [4] it was ≤ 50 nM.
For `O=C(/C=C/CN1CCCC1)N1CCOc2c1ccc1ncnc(Nc3ccc(Oc4ccccc4)cc3)c21` [Example 91, (E)-1-(10-((4-phenoxyphenyl)amino)-2,3-dihydro-4H-[1,4]oxazino[2,3-f]quinazolin-4-yl)-4-(pyrrolidin-1-yl)but-2-en-1-one], the IC50 was 500 to 5000 nM in experiment [1], ≤ 50 nM in experiment [2], ≤ 50 nM in experiment [3] and ≤ 50 nM in experiment [4].
On to `CCN(CC)C/C=C/C(=O)N1CCOc2c1ccc1ncnc(Nc3ccc(Oc4ccccc4)cc3)c21` [Example 92, (E)-4-(diethylamino)-1-(10-((4-phenoxyphenyl)amino)-2,3-dihydro-4H-[1,4]oxazino[2,3-f]quinazolin-4-yl)but-2-en-1-one], for which the IC50 is 500 to 5000 nM in experiment [1], ≤ 50 nM in experiment [2], ≤ 50 nM in experiment [3] and ≤ 50 nM in experiment [4].
On to `O=C(/C=C/CN1CCCCC1)N1CCOc2c1ccc1ncnc(Nc3ccc(Oc4ccccc4)cc3)c21` [Example 93, (E)-1-(10-((4-phenoxyphenyl)amino)-2,3-dihydro-4H-[1,4]oxazino[2,3-f]quinazolin-4-yl)-4-(piperidin-1-yl)but-2-en-1-one], for which the IC50 in experiment [1] is 50 to 500 nM; in experiment [2], ≤ 50 nM; in experiment [3], ≤ 50 nM; in experiment [4], ≤ 50 nM.
Consider `O=C(/C=C/CN1CCOCC1)N1CCOc2c1ccc1ncnc(Nc3ccc(Oc4ccccc4)cc3)c21` [Example 94, (E)-4-morpholino-1-(10-((4-phenoxyphenyl)amino)-2,3-dihydro-4H-[1,4]oxazino[2,3-f]quinazolin-4-yl)but-2-en-1-one], for which the IC50 in experiment [1] is 500 to 5000 nM; in experiment [2] it was ≤ 50 nM; in experiment [3], ≤ 50 nM; in experiment [4] it was ≤ 50 nM.
`CN1CCN(C/C=C/C(=O)N2CCOc3c2ccc2ncnc(Nc4ccc(Oc5ccccc5)cc4)c32)CC1` [Example 95, (E)-4-(4-methylpiperazin-1-yl)-1-(10-((4-phenoxyphenyl)amino)-2,3-dihydro-4H-[1,4]oxazino[2,3-f]quinazolin-4-yl)but-2-en-1-one]: the IC50 in experiment [1] was 50 to 500 nM; in experiment [2], ≤ 50 nM; in experiment [3] it was ≤ 50 nM; in experiment [4], ≤ 50 nM.
Regarding `O=C(/C=C/CN1CCOCC1)N1CCOc2c1ccc1ncnc(Nc3ccc(OCc4cccc(F)c4)c(Cl)c3)c21` [Example 96, (E)-1-(10-((3-chloro-4-((3-fluorobenzyl)oxy)phenyl)amino)-2,3-dihydro-4H-[1,4]oxazino[2,3-f]quinazolin-4-yl)-4-morpholinobut-2-en-1-one], the IC50 in experiment [1] was 50 to 500 nM; in experiment [2], ≤ 50 nM; in experiment [3], ≤ 50 nM; in experiment [4] it was ≤ 50 nM.
With `CN1CCN(C/C=C/C(=O)N2CCOc3c2ccc2ncnc(Nc4ccc(OCc5ccccn5)c(Cl)c4)c32)CC1` [Example 104, (E)-1-(10-((3-chloro-4-(pyridin-2-ylmethoxy)phenyl)amino)-2,3-dihydro-4H-[1,4]oxazino[2,3-f]quinazolin-4-yl)-4-(4-methylpiperazin-1-yl)but-2-en-1-one], the IC50 is 50 to 500 nM in experiment [1], ≤ 50 nM in experiment [2], ≤ 50 nM in experiment [3] and ≤ 50 nM in experiment [4].
For `CCN(CC)C/C=C/C(=O)N1CCOc2c1ccc1ncnc(Nc3ccc(OCc4ccccn4)c(Cl)c3)c21` [Example 105, (E)-1-(10-((3-chloro-4-(pyridin-2-ylmethoxy)phenyl)amino)-2,3-dihydro-4H-[1,4]oxazino[2,3-f]quinazolin-4-yl)-4-(diethylamino)but-2-en-1-one], the IC50 is 50 to 500 nM in experiment [1], ≤ 50 nM in experiment [2], ≤ 50 nM in experiment [3] and ≤ 50 nM in experiment [4].
As for `O=C(/C=C/CN1CCCC1)N1CCOc2c1ccc1ncnc(Nc3ccc(OCc4ccccn4)c(Cl)c3)c21` [Example 106, (E)-1-(10-((3-chloro-4-(pyridin-2-ylmethoxy)phenyl)amino)-2,3-dihydro-4H-[1,4]oxazino[2,3-f]quinazolin-4-yl)-4-(pyrrolidin-1-yl)but-2-en-1-one], the IC50 in experiment [1] is 50 to 500 nM; in experiment [2], ≤ 50 nM; in experiment [3] it was ≤ 50 nM; in experiment [4], ≤ 50 nM.
Turning to `O=C(/C=C/CN1CCCCC1)N1CCOc2c1ccc1ncnc(Nc3ccc(OCc4ccccn4)c(Cl)c3)c21` [Example 107, (E)-1-(10-((3-chloro-4-(pyridin-2-ylmethoxy)phenyl)amino)-2,3-dihydro-4H-[1,4]oxazino[2,3-f]quinazolin-4-yl)-4-(piperidin-1-yl)but-2-en-1-one], the IC50 in experiment [1] was 500 to 5000 nM; in experiment [2] it was ≤ 50 nM; in experiment [3] it was ≤ 50 nM; in experiment [4], ≤ 50 nM.
On to `CC(=O)N1CCN(C/C=C/C(=O)N2CCOc3c2ccc2ncnc(Nc4ccc(OCc5ccccn5)c(Cl)c4)c32)CC1` [Example 108, (E)-4-(4-acetylpiperazin-1-yl)-1-(10-((3-chloro-4-(pyridin-2-ylmethoxy)phenyl)amino)-2,3-dihydro-4H-[1,4]oxazino[2,3-f]quinazolin-4-yl)but-2-en-1-one], for which the IC50 in experiment [1] is 50 to 500 nM; in experiment [2], ≤ 50 nM; in experiment [3], ≤ 50 nM; in experiment [4], ≤ 50 nM.
Take `CN(C/C=C/C(=O)N1CCOc2c1ccc1ncnc(Nc3ccc(OCc4ccccn4)c(Cl)c3)c21)C1CCC1` [Example 110, (E)-1-(10-((3-chloro-4-(pyridin-2-ylmethoxy)phenyl)amino)-2,3-dihydro-4H-[1,4]oxazino[2,3-f]quinazolin-4-yl)-4-(cyclobutyl(methyl)amino)but-2-en-1-one]: the IC50 in experiment [1] was 50 to 500 nM; in experiment [2] it was ≤ 50 nM; in experiment [3], ≤ 50 nM; in experiment [4], ≤ 50 nM.
